A short description of data set [1]: physchem. The method, then:
Measurements were taken via LC/MS.
Stir bars were removed and samples centrifuged at 15,000 g for 15 minutes to separate the phases, and pipette and syringe were used to remove the upper (octanol) and lower (buffer) phases to empty tubes, respectively. Aliquots of 5 ni, were taken from upper phases and diluted with 495 ni, of methanol. Aliquots of 50 ni, were taken from lower phases and diluted with 450 ni, of methanol. Reference solutions of progesterone or metopolol were also prepared and tested as standards.

The nature of data set [2]: Solubility determination in PBS by LC/MS/MS. The following applies: for solubility at 2 h: kinetic from dmso stock.
On the set-up of data set [3]: concentration or dose not given beside the values. To be noted: cited from earlier work.
On the set-up of data set [4]: concentration or dose not given beside the values. The following applies: cited from earlier work. The source holds these as a separate data set.
Data set [5] in a line: physchem. To be noted: 25 °C, kinetic from dmso stock.
For data set [6] the following is noted: rats, 300 μmol/kg intraperitoneally immediately after uranyl acetate; cited from earlier work.
Where [7] appears, read: PBS pH 4.0, 25 °C, pH 4, aqueous buffer.
The mark [8] stands for this setting: PBS pH 7.4, 25 °C, pH 7.4, aqueous buffer.

Results on 17 molecules are retold here after US20130053387A1, “DESAZADESFERROTHIOCIN AND DESAZADESFERROTHIOCIN POLYETHER ANALOGUES AS METAL CHELATION AGENTS” (FerroKin BioScience, Inc., priority 2010, published 2013).

Converted amounts (≈) assume the structure as drawn. Like-named read-outs stand apart in the source and are kept apart here.

For `COCCOCCOc1ccc(C2=NC(C)(C(=O)O)CO2)c(O)c1` (centres unmarked) [Example 1, 2-(2-hydroxy-4-(2-(2-methoxyethoxy)ethoxy)phenyl)-4-methyl-4,5-dihydrooxazole-4-carboxylic acid], the logD at 1 h in data set [1] (pH 7.4) is -1.39. For the same molecule, the results for the solubility at 2 h in data set [2] (setting [7]) and in data set [2] (setting [8]) were 309 µM (≈ 105 µg/mL) and 312 µM (≈ 106 µg/mL), respectively.
The matching figures for `COCCOCCOCCOc1ccc(C2=NC(C)(C(=O)O)CO2)c(O)c1` (centres unmarked) [Example 2, 2-(2-hydroxy-4-(2-(2-(2-methoxyethoxy)ethoxy)ethoxy)phenyl)-4-methyl-4,5-dihydrooxazole-4-carboxylic acid]: -1.77, 297 µM (≈ 114 µg/mL) and 291 µM (≈ 112 µg/mL).
The matching figures for `COCCOCCOc1ccc(C2=NC(C)(C(=O)O)CN2)c(O)c1` (centres unmarked) [Example 3, 2-(2-hydroxy-4-(2-(2-methoxyethoxy)ethoxy)phenyl)-4-methyl-4,5-dihydro-1H-imidazole-4-carboxylic acid]: -1.87, 302 µM (≈ 102 µg/mL) and 299 µM (≈ 101 µg/mL).
For `COCCOCCOCCOc1ccc(C2=NC(C)(C(=O)O)CN2)c(O)c1` (centres unmarked) [Example 4, 2-(2-hydroxy-4-(2-(2-(2-methoxyethoxy)ethoxy)ethoxy)phenyl)-4-methyl-4,5-dihydro-1H-imidazole-4-carboxylic acid], in that order: -2.13, 313 µM (≈ 120 µg/mL) and 316 µM (≈ 121 µg/mL).
On to `COCCOCCOc1cccc(C2=NC(C)(C(=O)O)CN2)c1O` (centres unmarked) [Example 5, 2-(2-hydroxy-3-(2-(2-methoxyethoxy)ethoxy)phenyl)-4-methyl-4,5-dihydro-1H-imidazole-4-carboxylic acid], for which the log distribution coefficient (logD) at 1 h in data set [1] (pH 7.4) was -2.09. For the same molecule, the values for the solubility at 2 h in data set [2] (setting [7]) and in data set [2] (setting [8]) were 306 µM (≈ 104 µg/mL) and 311 µM (≈ 105 µg/mL), respectively.
The matching figures for `COCCOCCOCCOc1cccc(C2=NC(C)(C(=O)O)CN2)c1O` (centres unmarked) [Example 6, 2-(2-hydroxy-3-(2-(2-(2-methoxyethoxy)ethoxy)ethoxy)phenyl)-4-methyl-4,5-dihydro-1H-imidazole-4-carboxylic acid]: -1.98, 311 µM (≈ 119 µg/mL) and 311 µM (≈ 119 µg/mL).
For the molecule `COCCOCCOc1ccc(-n2ccc(C(=O)O)n2)c(O)c1` [Example 7, 1-(2-hydroxy-4-(2-(2-methoxyethoxy)ethoxy)phenyl)-1H-pyrazole-3-carboxylic acid], the pH-dependent lipophilicity (logD) at 1 h in data set [1] (pH 7.4) was -2.24. Moreover, the solubility at 2 h in data set [2] (setting [7]) was determined as 294 µM (≈ 94.7 µg/mL); in data set [2] (setting [8]), 297 µM (≈ 95.7 µg/mL).
With `COCCOCCOCCOc1ccc(-n2ccc(C(=O)O)n2)c(O)c1` [Example 8, 1-(2-hydroxy-4-(2-(2-(2-methoxyethoxy)ethoxy)ethoxy)phenyl)-1H-pyrazole-3-carboxylic acid], the logD at 1 h in data set [1] (pH 7.4) is -2.14. Besides, the solubility at 2 h in data set [2] (setting [7]) came to 300 µM (≈ 110 µg/mL); in data set [2] (setting [8]), 298 µM (≈ 109 µg/mL).
`COCCOCCOc1ccc(C2=N[C@@](C)(C(=O)O)CS2)c(O)c1` [Example A, (S)-2-(2-hydroxy-4-(2-(2-methoxyethoxy)ethoxy)phenyl)-4-methyl-4,5-dihydrothiazole-4-carboxylic acid]: in data set [1] (pH 7.4), the logD at 1 h is -1.14. The “Rodent ICE” value in data set [3] was 26.7 ± 4.7%. Moreover, the entries for the “Primate ICE” value in data set [4] (capsule) and in data set [4] (sodium salt) were 26.3 ± 9.9% and 28.7 ± 12.4%, respectively. In addition, the solubility at 2 h in data set [5] (pH 4, aqueous buffer) came to 309 µM (≈ 110 µg/mL); in data set [5] (pH 7.4, aqueous buffer), 305 µM (≈ 108 µg/mL).
On to `COCCOCCOCCOc1ccc(C2=N[C@@](C)(C(=O)O)CS2)c(O)c1` [Example B, (S)-2-(2-hydroxy-4-(2-(2-(2-methoxyethoxy)ethoxy)ethoxy)phenyl)-4-methyl-4,5-dihydrothiazole-4-carboxylic acid], for which the logD at 1 h in data set [1] (pH 7.4) is -1.45. The “Rodent ICE” value in data set [3] is on record as 5.5 ± 1.9%. For the same molecule, in data set [4], the “Primate ICE” value is reported as 25.4 ± 7.4%. Also, in data set [6], the “% Dose Cleared” value is reported as 22%, the “Uranium Excretion” value is 626 ± 123 µg/kg and the “Uranium Excretion vs. Control” value is 2.2. This molecule also registered a solubility at 2 h in data set [2] (setting [7]) of 307 µM (≈ 123 µg/mL). Besides, the concentration in solution in data set [2] (setting [8]) (solubility at 2 h) was 313 µM (≈ 125 µg/mL).
As to `COCCOCCOCCOCCOc1ccc(C2=N[C@@](C)(C(=O)O)CS2)c(O)c1` [Example C, (S)-2-(4-(2,5,8,11-tetraoxamidecan-13-yloxy)-2-hydroxyphenyl)-4-methyl-4,5-dihydrothiazole-4-carboxylic acid], in data set [3], the “Rodent ICE” value is listed as 12.0 ± 1.5%. Also, the “Primate ICE” value in data set [4] is 9.8 ± 1.9%.
As to `COCCOCCOc1cccc(C2=N[C@@](C)(C(=O)O)CS2)c1O` [Example D, (S)-2-(2-hydroxy-3-(2-(2-methoxyethoxy)ethoxy)phenyl)-4-methyl-4,5-dihydrothiazole-4-carboxylic acid], the “Rodent ICE” value in data set [3] was 15.1 ± 2.0%. Besides, the “Primate ICE” value in data set [4] is recorded as 22.5 ± 6.4%.
For the molecule `COCCOCCOCCOc1cccc(C2=N[C@@](C)(C(=O)O)CS2)c1O` [Example E, (S)-2-(2-hydroxy-3-(2-(2-(2-methoxyethoxy)ethoxy)ethoxy)phenyl)-4-methyl-4,5-dihydrothiazole-4-carboxylic acid], in data set [3], the “Rodent ICE” value was 10.6 ± 4.4%b. For the same molecule, the “Primate ICE” value in data set [4] is recorded as 23.0 ± 4.1%.
`COCCOCCOCCOCCOc1cccc(C2=N[C@@](C)(C(=O)O)CS2)c1O` [Example F, (S)-2-(3-(2,5,8,11-tetraoxamidecan-13-yloxy)-2-hydroxyphenyl)-4-methyl-4,5-dihydrothiazole-4-carboxylic acid]: the “Rodent ICE” value in data set [3] is given as 12.4 ± 1.7%. For the same molecule, in data set [4], the “Primate ICE” value is recorded as 9.6 ± 4.9%.
`O=C(O)Cc1ccccc1Nc1c(Cl)cccc1Cl` [diclofenac]: the solubility at 2 h in data set [2] (setting [7]) was determined as 7.47 µM (≈ 2.21 µg/mL). The “Solubility at pH 7.4” value in data set [2] (PBS pH 7.4, 25° C., 2 hours, assay upper limit 300 μM) came to 273.38 μM.
Turning to `COCCc1ccc(OCC(O)CNC(C)C)cc1` (centres unmarked) [metopolol], in data set [1] (pH 7.4), the LogD is recorded as −0.27.
The molecule `CC(=O)[C@H]1CC[C@H]2[C@@H]3CCC4=CC(=O)CC[C@]4(C)[C@H]3CC[C@]12C` [progesterone] yielded a logD at 1 h in data set [1] of 3.71.

As usually defined, the logD is the decadic logarithm of the distribution of all forms, ionised or not, between an organic phase and buffer at a given pH. By solubility is commonly meant the dissolved amount per volume that the medium holds. The Solubility is the concentration that dissolves in the medium under given conditions. One may read the LogD as lipophilicity at a set pH, counting ionised and neutral species.
